Measured values as given in publication PMC12211128, “Safety, tolerability, pharmacokinetic and pharmacodynamic effects of the muscarinic M1 positive allosteric modulator VU0467319 for Alzheimer’s disease: a single ascending-dose study in healthy participants” (Alzheimer's Research & Therapy, 2025).

How the values were obtained:
[1] = tested on: healthy participants; test: Vital signs; type: in vivo, human
Experimental: Safety and tolerability were assessed throughout the study via treatment emergent adverse event (TEAE) monitoring, vital signs (blood pressure, pulse rate, respiration rate, oral temperature), physical examinations, 12-lead ECGs, and clinical laboratory parameters including complete blood count (CBC), coagulation, hematology, clinical chemistry assessments, and urinalysis. Safety laboratory tests were drawn at pre-dose and at 5, 24, 36 and 144-hours post-dose for 60–400 mg Cohorts; and at 24, 48, 72 and 144-hours post-dose for the 600 mg and Food Effect Cohort. […] All adverse events (AEs) were assessed by the investigator for severity and relationship to study medication or study procedures.
All AEs were coded using the Medical Dictionary for Regulatory Activities (MedDRA) version 22.0. All AEs were listed, and the emergence of TEAEs were categorized by body system affected and analyzed to determine whether they were related to treatment. […] Assessment of the grade of toxicity or relation to the study drug for each adverse event was determined by the Investigator. […] Changes in vital signs from pre-dose to 48 h post-dose were placed into 10-time bins and assessed using mixed-measures ANOVA with the time bins as the within-subjects factor and dose as the between-subjects factor. […]

[2] = tested on: healthy participants; test: Conner's Continuous Performance Task (CPT); type: in vivo, human; settings: for CPT Commission Errors / CPT Hit Response Time / CPT Omission Errors / CPT Perseverations: mean (SD)
Experimental: (§1) The Conner’s Continuous Performance Task (CPT; [32]) tested sustained attention to a target. Participants saw a string of letters appearing one at a time on a computer screen. Participants were asked to press the spacebar whenever the target stimulus (any letter except for the X) appeared. Participants were asked to withhold responding when a X was presented, which is the non-target stimulus. A set of 15 outcome measures derived from the task report were recorded as key variables. These measures include Hit RT, Hit Standard Error, Commission, Omission and Perseveration errors, Sensitivity, Response style, and the Hit standard error across different interstimulus intervals.
Cognitive data: In this exploratory analysis, each outcome variable of the cognitive data was examined in a mixed model analysis of variance with one between-subjects factor of VU319 dose (0, 60, 120, 240, 400, 600 mg) and a within-subjects factor of testing session (pre-dose vs. post-dost administration). Post-hoc analysis compared each of the VU319 dose cohorts against the placebo group. Because the participants were healthy adults with normal cognitive function, we considered effects between no reductions in function to small improvement (d = 0.0–0.20) to be a positive result. For the food effect study, only the participants who received VU319 were examined due to the disproportionately small placebo group (n = 2). A within-subjects ANOVA including food condition (fasted/fed) and testing session (pre-dose vs. post-dose administration) was performed on each outcome variable.
as §1, with “(Conners et al., 2000))” for “[32])”

[3] = Food effect study 120 mg, Fasting, Post-Drug, n = 9
[4] = Food effect study 120 mg, Fasting, Pre-Drug, n = 9
[5] = Food effect study 120 mg, Fed, Post-Drug, n = 9
[6] = Food effect study 120 mg, Fed, Pre-Drug, n = 9

Cn1cc2c(-c3cc(F)c(CN4Cc5ncccc5C4=O)c(F)c3)cccc2n1 [VU319]
vitals measurements over the first 48 h post-dose ([1]; SAD study): no significant dose-by-time interactions | vitals measurements over the first 48 h post-dose ([1]; food effect study): no significant dose-by-time interactions | CPT Hit RT, 600 mg vs placebo, effect size d ([2]; 600 mg, pre-dose to post-dose): 1.48 | CPT Hit RT, pre- to post-dose change, mean difference vs placebo ([2]; 600 mg, p = 0.012): -28.12 | CPT Commission Errors [2, 3]: 12.6 (6.62) | CPT Hit Response Time [2, 3]: 387.85 (64.33) ms | CPT Omission Errors [2, 3]: 4.33 (7.16) | CPT Perseverations [2, 3]: 2.56 (6.93) | CPT Commission Errors [2, 4]: 11.6 (5.68) | CPT Hit Response Time [2, 4]: 395.78 (51.66) ms | CPT Omission Errors [2, 4]: 4.56 (10.4) | CPT Perseverations [2, 4]: 3.89 (11.7) | CPT Commission Errors [2, 5]: 12.3 (6.2) | CPT Hit Response Time [2, 5]: 381.1 (71.8) ms | CPT Omission Errors [2, 5]: 2 (4.24) | CPT Perseverations [2, 5]: 1.78 (2.44) | CPT Commission Errors [2, 6]: 11.1 (5.58) | CPT Hit Response Time [2, 6]: 381.6 (59.56) ms | CPT Omission Errors [2, 6]: 1.22 (1.48) | CPT Perseverations [2, 6]: 0.44 (1.01) | CPT Commission Errors ([2]; SAD study, 60 mg, Post-Drug): 13.33 (4.37) | CPT Hit Response Time ([2]; SAD study, 60 mg, Post-Drug): 407.08 (66.44) ms | CPT Omission Errors ([2]; SAD study, 60 mg, Post-Drug): 3.33 (4.55) | CPT Perseverations ([2]; SAD study, 60 mg, Post-Drug): 0 (0) | CPT Commission Errors ([2]; SAD study, 60 mg, Pre-Drug): 12.83 (4.07) | CPT Hit Response Time ([2]; SAD study, 60 mg, Pre-Drug): 393.27 (46.65) ms | CPT Omission Errors ([2]; SAD study, 60 mg, Pre-Drug): 1 (1.27) | CPT Perseverations ([2]; SAD study, 60 mg, Pre-Drug): 0.33 (0.52) | CPT Commission Errors ([2]; SAD study, 120 mg, Post-Drug): 15.33 (5.92) | CPT Hit Response Time ([2]; SAD study, 120 mg, Post-Drug): 356.2 (29.58) ms | CPT Omission Errors ([2]; SAD study, 120 mg, Post-Drug): 4.67 (5.28) | CPT Perseverations ([2]; SAD study, 120 mg, Post-Drug): 1.5 (1.98) | CPT Commission Errors ([2]; SAD study, 120 mg, Pre-Drug): 15.5 (6.66) | CPT Hit Response Time ([2]; SAD study, 120 mg, Pre-Drug): 361.23 (27.25) ms | CPT Omission Errors ([2]; SAD study, 120 mg, Pre-Drug): 0.83 (0.75) | CPT Perseverations ([2]; SAD study, 120 mg, Pre-Drug): 0 (0) | CPT Commission Errors ([2]; SAD study, 240 mg, Post-Drug): 12 (1.55) | CPT Hit Response Time ([2]; SAD study, 240 mg, Post-Drug): 372.94 (64.52) ms | CPT Omission Errors ([2]; SAD study, 240 mg, Post-Drug): 2.33 (2.58) | CPT Perseverations ([2]; SAD study, 240 mg, Post-Drug): 0.83 (1.6) | CPT Commission Errors ([2]; SAD study, 240 mg, Pre-Drug): 11.33 (3.62) | CPT Hit Response Time ([2]; SAD study, 240 mg, Pre-Drug): 372.21 (43.06) ms | CPT Omission Errors ([2]; SAD study, 240 mg, Pre-Drug): 1 (1.27) | CPT Perseverations ([2]; SAD study, 240 mg, Pre-Drug): 0.5 (1.23) | CPT Commission Errors ([2]; SAD study, 400 mg, Post-Drug): 9.5 (3.08) | CPT Hit Response Time ([2]; SAD study, 400 mg, Post-Drug): 365.85 (33.44) ms | CPT Omission Errors ([2]; SAD study, 400 mg, Post-Drug): 1.67 (1.97) | CPT Perseverations ([2]; SAD study, 400 mg, Post-Drug): 0.33 (0.82) | CPT Commission Errors ([2]; SAD study, 400 mg, Pre-Drug): 10.33 (2.81) | CPT Hit Response Time ([2]; SAD study, 400 mg, Pre-Drug): 374.41 (25.8) ms | CPT Omission Errors ([2]; SAD study, 400 mg, Pre-Drug): 0.67 (1.2) | CPT Perseverations ([2]; SAD study, 400 mg, Pre-Drug): 0.17 (0.41) | CPT Commission Errors ([2]; SAD study, 600 mg, Post-Drug): 17 (8.49) | CPT Hit Response Time ([2]; SAD study, 600 mg, Post-Drug): 356.18 (45.08) ms | CPT Omission Errors ([2]; SAD study, 600 mg, Post-Drug): 1.5 (2.35) | CPT Perseverations ([2]; SAD study, 600 mg, Post-Drug): 1.5 (3.21) | CPT Commission Errors ([2]; SAD study, 600 mg, Pre-Drug): 13 (5.66) | CPT Hit Response Time ([2]; SAD study, 600 mg, Pre-Drug): 387.39 (51.74) ms | CPT Omission Errors ([2]; SAD study, 600 mg, Pre-Drug): 1.33 (3.27) | CPT Perseverations ([2]; SAD study, 600 mg, Pre-Drug): 0.33 (0.82) | CPT hit response time, dose by time interaction, effect size d ([2]; SAD study, p = 0.063, faster following higher doses): 1.19 | CPT, effects of food or time ([2]; food effect study, 120 mg): no significant effects of food or time
